The source of these data is ChEMBL document CHEMBL5241110, “Medicines for millions of patients” (RSC Med Chem, 2022).

The test system of one assay is Pancuronium. In words: Binding affinity to pancuronium.
Another assay concerns Rocuronium. The experiment in a line: Binding affinity to rocuronium by ITC method. (In general: In ITC the heat of successive injections is recorded.)

In the case of `CC(=O)O[C@@H]1C[C@H]2CCC3C4C[C@H]([N+]5(C)CCCCC5)[C@H](OC(C)=O)[C@@]4(C)CCC3[C@@]2(C)C[C@@H]1[N+]1(C)CCCCC1` (some centres not stated), the Ka in the assay with Pancuronium is 167 M⁻¹.

In the case of `O=C(O)CCSC[C@H]1O[C@@H]2O[C@H]3[C@H](O)[C@@H](O)[C@@H](O[C@H]4[C@H](O)[C@@H](O)[C@@H](O[C@H]5[C@H](O)[C@@H](O)[C@@H](O[C@H]6[C@H](O)[C@@H](O)[C@@H](O[C@H]7[C@H](O)[C@@H](O)[C@@H](O[C@H]8[C@H](O)[C@@H](O)[C@@H](O[C@H]9[C@H](O)C(O)[C@@H](O[C@H]1[C@H](O)[C@H]2O)O[C@@H]9CSCCC(=O)O)O[C@@H]8CSCCC(=O)O)O[C@@H]7CSCCC(=O)O)O[C@@H]6CSCCC(=O)O)O[C@@H]5CSCCC(=O)O)O[C@@H]4CSCCC(=O)O)O[C@@H]3CSCCC(=O)O` (some centres not stated), the Ka in the assay with Rocuronium was 1.05 10^7 M^-1.
